Data taken from article PMC11314731 (Polymers, 2024).
Like-named read-outs stand apart in the source and are kept apart here.

Key:
[1] = test system: Mdr1a P-gp; design: method as in PMID 9050899; settings: cited from earlier work
[2] = cited from earlier work
[3] = test system: Caco-2 cells; experiment: In vitro cellular uptake of Rh123 in Caco-2 cells; settings: Rh123 20 µM, 5 h incubation, 37 °C; TPGS 33 µM, CyA 4 µM

SMILES | increase in plasma AUC of PTX, Mdr1a knockout vs wild-type mice ([1]; IV administration) | increase in plasma AUC of PTX, Mdr1a knockout vs wild-type mice ([1]; oral administration) | LogP [2] | pKa [2] | fluorescence intensity (cellular uptake of Rh123) [3]
CC(=O)O[C@H]1C(=O)[C@@]2(C)[C@H]([C@H](OC(=O)c3ccccc3)[C@]3(O)C[C@H](OC(=O)[C@H](O)[C@@H](NC(=O)c4ccccc4)c4ccccc4)C(C)=C1C3(C)C)[C@]1(OC(C)=O)CO[C@@H]1C[C@@H]2O [PTX, Paclitaxel] | twofold increase | more than sixfold increase | 3.66 | 10.36 | –
COC(=O)c1ccccc1-c1c2ccc(=N)cc-2oc2cc(N)ccc12 [free Rh123, rhodamine 123] | – | – | – | – | very low fluorescence intensity
